Results as given in patent publication US10570123B2 (SURFACE LOGIX, LLC, priority 2005, dated 2020).

Legend:
ROCK2 = ROCK2 (Homo sapiens (Human), UniProt O75116); experiment: Inhibition of ROCK2; type: biochemical; details: FIG. 10 legend, qualitative
Description: Methods of determining kinase inhibition are well known in the art. For example, kinase activity of an enzyme and the inhibitory capacity of a test compound can be determined by measuring enzyme specific phosphorylation of a substrate. Commercial assays and kits can be employed. For example, kinase inhibition can be determined using an IMAP® assay (Molecular Devices). This assay method involves the use of a fluorescently-tagged peptide substrate. Phosphorylation of the tagged peptide by a kinase of interest promotes binding of the peptide to a trivalent metal-based nanoparticle via the specific, high affinity interaction between the phospho-group and the trivalent metal. Proximity to the nanoparticle results in increased fluorescence polarization. Inhibition of the kinase by a kinase inhibitor prevents phosphorylation of the substrate and thereby limits binding of the fluorescently-tagged substrate to the nanoparticle. […]
ROCK-II inhibitory activity can be measured using the ROCK-II Assay Kit (Molecular Devices, inc.; Sunnyvale, Calif.).
Inhibition of ROCK2 by various compounds was determined.
Inhibitory activity for Rho kinase was determined for examples of compounds of the present invention. […] For each of these compounds their inhibitory activity for both ROCK 1 and ROCK 2 was determined. […]

PKC = experiment: Inhibition of PKC (FIG. 10 comparison); type: biochemical; details: FIG. 10 legend, qualitative

ROCK2, sequence (O75116 whole entry, species assumed): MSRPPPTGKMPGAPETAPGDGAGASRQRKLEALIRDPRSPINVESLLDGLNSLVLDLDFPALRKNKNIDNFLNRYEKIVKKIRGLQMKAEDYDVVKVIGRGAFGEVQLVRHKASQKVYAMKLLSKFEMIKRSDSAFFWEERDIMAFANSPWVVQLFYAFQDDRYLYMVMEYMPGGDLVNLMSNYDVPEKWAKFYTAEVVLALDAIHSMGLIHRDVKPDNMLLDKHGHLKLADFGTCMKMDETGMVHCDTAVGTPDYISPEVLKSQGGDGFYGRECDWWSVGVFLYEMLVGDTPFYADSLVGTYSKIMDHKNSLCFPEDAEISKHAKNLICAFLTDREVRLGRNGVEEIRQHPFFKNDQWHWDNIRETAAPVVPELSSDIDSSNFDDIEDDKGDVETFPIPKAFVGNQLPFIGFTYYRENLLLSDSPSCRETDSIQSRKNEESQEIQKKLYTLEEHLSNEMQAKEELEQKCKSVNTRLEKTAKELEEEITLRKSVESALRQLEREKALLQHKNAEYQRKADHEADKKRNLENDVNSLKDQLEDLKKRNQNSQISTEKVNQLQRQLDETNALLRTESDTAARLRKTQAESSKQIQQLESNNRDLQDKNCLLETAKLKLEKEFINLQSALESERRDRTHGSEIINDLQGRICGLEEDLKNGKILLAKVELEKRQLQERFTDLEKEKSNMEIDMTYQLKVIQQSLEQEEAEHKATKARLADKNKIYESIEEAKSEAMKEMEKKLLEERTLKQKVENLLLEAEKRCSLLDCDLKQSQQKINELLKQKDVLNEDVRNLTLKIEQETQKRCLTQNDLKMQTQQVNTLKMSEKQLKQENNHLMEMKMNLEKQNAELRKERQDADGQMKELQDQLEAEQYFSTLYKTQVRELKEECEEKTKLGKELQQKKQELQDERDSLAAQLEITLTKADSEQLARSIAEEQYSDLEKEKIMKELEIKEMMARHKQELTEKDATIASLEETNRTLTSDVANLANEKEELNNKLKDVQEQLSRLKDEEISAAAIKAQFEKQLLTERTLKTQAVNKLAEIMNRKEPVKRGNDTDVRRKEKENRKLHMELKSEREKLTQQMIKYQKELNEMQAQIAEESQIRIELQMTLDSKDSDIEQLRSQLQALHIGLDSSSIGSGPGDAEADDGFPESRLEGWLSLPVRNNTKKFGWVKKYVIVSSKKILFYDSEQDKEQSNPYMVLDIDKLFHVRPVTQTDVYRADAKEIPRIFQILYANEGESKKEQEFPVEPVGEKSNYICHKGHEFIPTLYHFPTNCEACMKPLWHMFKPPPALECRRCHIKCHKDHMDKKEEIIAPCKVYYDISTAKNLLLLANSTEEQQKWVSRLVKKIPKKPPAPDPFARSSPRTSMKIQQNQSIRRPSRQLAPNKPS

inhibition of ROCK2 (FIG. 10) (ROCK2) | SMILES | inhibition of PKC (FIG. 10) (PKC)
specific inhibition of ROCK2 | CC(C)NC(=O)COc1cccc(-c2nc(Nc3ccc4[nH]ncc4c3)c3ccccc3n2)c1 [Example 82, 2-(3-(4-(1H-indazol-5-ylamino)quinazolin-2-yl)phenoxy)-N-isopropylacetamide] | –
inhibits | C[C@@H](N)[C@H]1CC[C@H](C(=O)Nc2ccncc2)CC1 [Example Y27632] | inhibits
